{
  "source": "patent US7081495B1",
  "about": "“Cationic compounds and their use as macro molecular carriers” (School of Pharmacy, University of London, priority 1998, dated 2006)",
  "key": {"[1]": {"test": "In vivo distribution of 3H-dendrimer (liquid scintillation counting)", "set-up": "species or system C57BL/6 mice", "protocol": "Tritiated dendrimer synthesised as described in Example 1 above except 3H labelled BOC-lysine was prepared quantitatively from 3H-lysine purchased commercially based on the method of Keller et al Organ. Synth. 63, 160–170 (1985) (1a: Specific Activity 31Bq/ug @ 5 μg/μl in dH20) were made up to 1.2 μg/μl with 0.9% w/v sodium chloride BP. For each animal, complexes were formed at room temperature by adding 5 μg pCEP4hFIXint (as used in Example 11) in 100 μl 0.9% sodium chloride BP) dropwise to 100 μl dendrimer solution (dendrimer:DNA charge ratio about 4:1) with moderate vortexing. The complexes were then sonicated on ice with a hand-held probe at low power setting several times with three second pulses.\nMale C57BL/6mice (8–10 weeks) were divided into two groups. The first group (n=8) were given approx. 150–200 μl of the complexes (exact dose determined by difference in weight of syringe pre/post injection) via tail vein injection. The second (n=4) were administered 150 μl of the complexes in a dosed food particle (isolation/observation confirmed ingestion of the food particle). At time-points 2 hours, 24 hours, 4 days, 7 days (group 1) and 24 hours, and 7 days (group 2) the mice were sacrificed and organs/fluids harvested. Blood and urine were collected when possible post mortem, the former in citrate tubes. Organs were weighed and immediately immersed in liquid nitrogen cooled isopentane to be kept at −80° C.\nOrgan samples for liquid scintillation counting (for detecting dendrimer) were processed as per “Packard Counting Solutions” protocol for samples <30 mg using Solvable (Packard) for all tissues except blood, urine and digestive tract tissues that were dissolved using Soluene-350 (Packard). The LSC cocktail used was Ultima Gold. Counting time was 10 minutes. Detection of episomal DNA was performed by PCR using primers that amplified a 460 bp section of the plasmid of the 3′ end of hFIX cDNA and the SV40 pA region"}, "[2]": {"tested_on": "Human Embryonic Kidney (HEK) 293 cells", "test": "Transient transfection of HEK 293 cells with GABAA receptor α1 subunit cDNA", "assay_type": "cell-based", "conditions": "[…] compound 1a", "protocol": "Human Embryonic Kidney (HEK) 293 cells were sub-cultured onto poly-L-lysine coated 35 mm petri dishes such that 24 h later the cells were still sub-confluent. Culture media was replaced on the morning of the transfection procedure. Cells were returned to the CO2—incubator ([…]/95% air) for 3 h.\nCompound 1a was incubated with a GABAA receptor αl subunit cDNA-pCDM8 (Mammalian cell expression vector Thompson C. L. et al Neuroscience Let. 144 53–56 (1992)) construct (Fc2 μg/ml) in DMEM at weight ratios of 1:1, 10:1 and 100:1 (1a:α1 cDNA) for 30 minutes prior to transfection.\nCells were washed 3× with serum-free DMEM prior to application of compound 1a/GABAA receptor α subunit cDNA-vector (1ml/dish). Dishes were returned to the incubator (37° C.) for 5 h. Media was then supplemented with DMEM/10% FCS (1 ml/dish), returned to the incubator for 24 h. […]\n24 h later the cells were washed 3× with phosphate-buffered saline and then fixed with methanol (−20° C., 25 min, 2 dishes from each regime) or 4% parafarmaldehyde (room temp., 15 min, 2 dishes from each regime). The cells were then processed for GABAA receptor α1 subunit-like immunoreactivity according to Thompson et al. Immunoreactivity was detected by diaminobenzidine staining and visualised under the light microscope."}, "[3]": {"tested_on": "Rat red blood cells", "test": "RBC lysis, compound alone or complexed with pSVβgal", "conditions": "pSVβgal 0.0125 μg/μl, 1 hour at 37° C.", "method": "Rat red blood cells were obtained by centrifugation of complete blood. A 2% suspension of cells was made in phosphate buffered saline. […] The lysate supernatant was recovered by centrifugation and the absorbance measured at 540 nm. (Concentration of pSVβgal was 0.0125 μg/μl)."}},
  "note": "Where “and” joins values, the source holds several entries; their conditions need not be identical. Identical values can stand only once. Non-standard residues stand in square brackets, D forms with d. Residues, ends and D or L forms follow the SMILES beside them. ξ: configuration not given here. *: point of attachment. X1 = NCCCC[C@H](N)C(=O)NCCCC[C@H](NC(=O)[C@@H](N)CCCCN)C(=O)*; ξGly(dodecyl) = CCCCCCCCCCCCC(N)C(=O)O",
  "data": [
    {"smiles": "CCCCCCCCCCCCC(NC(=O)C(CCCCCCCCCCCC)NC(=O)C(CCCCCCCCCCCC)NC(=O)[C@H](CCCCNC(=O)[C@H](CCCCNC(=O)[C@@H](N)CCCCN)NC(=O)[C@@H](N)CCCCN)NC(=O)[C@H](CCCCNC(=O)[C@@H](N)CCCCN)NC(=O)[C@@H](N)CCCCN)C(N)=O", "note": "(some centres unmarked) [Compound 1a] (H-KK(Lys)K(X1)[ξGly(dodecyl)][ξGly(dodecyl)][ξGly(dodecyl)]-NH2)", "values": [
      {"measurement": "% age Total Dose, Heart", "setting": "[1]; Oral, 24 hours", "result": 0.53, "unit": "%"},
      {"measurement": "% age Total Dose, Kidney", "setting": "[1]; Oral, 24 hours", "result": "0.52% and 0.29%"},
      {"measurement": "% age Total Dose, Liver", "setting": "[1]; Oral, 24 hours", "result": "3.70% and 1.84%"},
      {"measurement": "% age Total Dose, Lungs", "setting": "[1]; Oral, 24 hours", "result": 0.78, "unit": "%"},
      {"measurement": "% age Total Dose, Spleen", "setting": "[1]; Oral, 24 hours", "result": "0.16% and 0.13%"},
      {"measurement": "% age Total Dose, Urine", "setting": "[1]; Oral, 24 hours", "result": "0.48% and 0.75%"},
      {"measurement": "% age Total Dose, Heart", "setting": "[1]; i.v., 2 hours", "result": "0.22% and 0.06%"},
      {"measurement": "% age Total Dose, Kidney", "setting": "[1]; i.v., 2 hours", "result": "0.34% and 0.48%"},
      {"measurement": "% age Total Dose, Liver", "setting": "[1]; i.v., 2 hours", "result": "10.35% and 2.07%"},
      {"measurement": "% age Total Dose, Lungs", "setting": "[1]; i.v., 2 hours", "result": "0.47% and 0.13%"},
      {"measurement": "% age Total Dose, Spleen", "setting": "[1]; i.v., 2 hours", "result": "1.00% and 0.30%"},
      {"measurement": "Activity, Urine", "setting": "[1]; i.v., 2 hours", "result": "(21 Bq/0.1 ml)"},
      {"measurement": "% age Total Dose, Heart", "setting": "[1]; i.v., 24 hours", "result": "0.80% and 4.89%"},
      {"measurement": "% age Total Dose, Kidney", "setting": "[1]; i.v., 24 hours", "result": "0.57% and 1.63%"},
      {"measurement": "% age Total Dose, Liver", "setting": "[1]; i.v., 24 hours", "result": "8.05% and 0.71%"},
      {"measurement": "% age Total Dose, Spleen", "setting": "[1]; i.v., 24 hours", "result": "0.61% and 0.07%"},
      {"measurement": "% age Total Dose, Urine", "setting": "[1]; i.v., 24 hours", "result": 0.52, "unit": "%"},
      {"measurement": "% age Total Dose, Heart", "setting": "[1]; i.v., 4 days", "result": 1.48, "unit": "%"},
      {"measurement": "% age Total Dose, Lungs", "setting": "[1]; i.v., 4 days", "result": 0.95, "unit": "%"},
      {"measurement": "% age Total Dose, Muscle", "setting": "[1]; i.v., 4 days", "result": 0.03, "unit": "%"},
      {"measurement": "% age Total Dose, Spleen", "setting": "[1]; i.v., 4 days", "result": 0.18, "unit": "%"},
      {"measurement": "% age Total Dose, Urine", "setting": "[1]; i.v., 4 days", "result": 1.3, "unit": "%"},
      {"measurement": "% age Total Dose, Heart", "setting": "[1]; i.v., 7 days", "result": 1.53, "unit": "%"},
      {"measurement": "% age Total Dose, Kidney", "setting": "[1]; i.v., 7 days", "result": "0.89% and 5.68%"},
      {"measurement": "% age Total Dose, Liver", "setting": "[1]; i.v., 7 days", "result": "2.91% and 6.53%"},
      {"measurement": "% age Total Dose, Lungs", "setting": "[1]; i.v., 7 days", "result": 0.16, "unit": "%"},
      {"measurement": "% age Total Dose, Spleen", "setting": "[1]; i.v., 7 days", "result": "0.53% and 0.51%"},
      {"measurement": "cell viability", "setting": "[2]", "result": "deleterious to cell viability"}
    ]},
    {"smiles": "CCCCCCCCCCCCC(NC(=O)C(CCCCCCCCCCCC)NC(=O)C(CCCCCCCCCCCC)NC(=O)[C@H](CCCCNC(=O)[C@H](CCCCNC(=O)[C@H](CCCCNC(=O)[C@@H](N)CCCCN)NC(=O)[C@@H](N)CCCCN)NC(=O)[C@H](CCCCNC(=O)[C@@H](N)CCCCN)NC(=O)[C@@H](N)CCCCN)NC(=O)[C@H](CCCCNC(=O)[C@H](CCCCNC(=O)[C@@H](N)CCCCN)NC(=O)[C@@H](N)CCCCN)NC(=O)[C@H](CCCCNC(=O)[C@@H](N)CCCCN)NC(=O)[C@@H](N)CCCCN)C(N)=O", "note": "(some centres unmarked) [Compound 1b]", "values": [
      {"measurement": "effect of complexing to DNA on erythrocyte lysis", "setting": "[3]", "result": "reduces levels of erythrocyte lysis"}
    ]}
  ]
}
